These are literature values, as cited in patent publication US20070072885A1, “BICYCLIC DERIVATIVES FOR THE TREATMENT OF ABNORMAL CELL GROWTH” (Pfizer Inc, priority 2005, published 2007).

The subject of data set [1] is another carcinoma which does not express the EGF receptor.
Data set [2] concerns transplanted human mammary carcinoma which expresses epidermal growth factor receptor tyrosine kinase (EGFR). As to conditions: EGFR-expressing carcinoma in athymic nude mice.

As for `O=CN/C=C/c1cc(O)ccc1O` [erbstatin], in data set [1], the “growth of another carcinoma” value is recorded as “without effect”. Besides, the “growth of transplanted human mammary carcinoma” value in data set [2] is “selectively attenuates the growth”.
